Experimental data taken from patent publication US9302991B2, “Arylamide derivatives as TTX-S blockers” (RaQualia Pharma Inc., priority 2010, dated 2016).

Each compound was assayed against T1, human Nav1.7 channels (Homo sapiens, UniProt Q15858) (assay: FRET assay, human Nav1.7 (EFS on FDSS)). Settings: CHO cells expressing human Nav1.7, read-out: IC50 against Nav1.7.
T1 construct: expressed in transfected cells; host or cells: CHO
Format: cell-based
Summary of the method: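 IC50 was derived from normalized 440 nm fluorescence ratios of the EFS-evoked membrane-potential response read on FDSS. Recombinant CHO cells were sequentially dye-loaded with coumarin/oxonol FRET pair at room temperature in pH 7.4 buffer before compound addition.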

T1 sequence (Q15858 whole entry): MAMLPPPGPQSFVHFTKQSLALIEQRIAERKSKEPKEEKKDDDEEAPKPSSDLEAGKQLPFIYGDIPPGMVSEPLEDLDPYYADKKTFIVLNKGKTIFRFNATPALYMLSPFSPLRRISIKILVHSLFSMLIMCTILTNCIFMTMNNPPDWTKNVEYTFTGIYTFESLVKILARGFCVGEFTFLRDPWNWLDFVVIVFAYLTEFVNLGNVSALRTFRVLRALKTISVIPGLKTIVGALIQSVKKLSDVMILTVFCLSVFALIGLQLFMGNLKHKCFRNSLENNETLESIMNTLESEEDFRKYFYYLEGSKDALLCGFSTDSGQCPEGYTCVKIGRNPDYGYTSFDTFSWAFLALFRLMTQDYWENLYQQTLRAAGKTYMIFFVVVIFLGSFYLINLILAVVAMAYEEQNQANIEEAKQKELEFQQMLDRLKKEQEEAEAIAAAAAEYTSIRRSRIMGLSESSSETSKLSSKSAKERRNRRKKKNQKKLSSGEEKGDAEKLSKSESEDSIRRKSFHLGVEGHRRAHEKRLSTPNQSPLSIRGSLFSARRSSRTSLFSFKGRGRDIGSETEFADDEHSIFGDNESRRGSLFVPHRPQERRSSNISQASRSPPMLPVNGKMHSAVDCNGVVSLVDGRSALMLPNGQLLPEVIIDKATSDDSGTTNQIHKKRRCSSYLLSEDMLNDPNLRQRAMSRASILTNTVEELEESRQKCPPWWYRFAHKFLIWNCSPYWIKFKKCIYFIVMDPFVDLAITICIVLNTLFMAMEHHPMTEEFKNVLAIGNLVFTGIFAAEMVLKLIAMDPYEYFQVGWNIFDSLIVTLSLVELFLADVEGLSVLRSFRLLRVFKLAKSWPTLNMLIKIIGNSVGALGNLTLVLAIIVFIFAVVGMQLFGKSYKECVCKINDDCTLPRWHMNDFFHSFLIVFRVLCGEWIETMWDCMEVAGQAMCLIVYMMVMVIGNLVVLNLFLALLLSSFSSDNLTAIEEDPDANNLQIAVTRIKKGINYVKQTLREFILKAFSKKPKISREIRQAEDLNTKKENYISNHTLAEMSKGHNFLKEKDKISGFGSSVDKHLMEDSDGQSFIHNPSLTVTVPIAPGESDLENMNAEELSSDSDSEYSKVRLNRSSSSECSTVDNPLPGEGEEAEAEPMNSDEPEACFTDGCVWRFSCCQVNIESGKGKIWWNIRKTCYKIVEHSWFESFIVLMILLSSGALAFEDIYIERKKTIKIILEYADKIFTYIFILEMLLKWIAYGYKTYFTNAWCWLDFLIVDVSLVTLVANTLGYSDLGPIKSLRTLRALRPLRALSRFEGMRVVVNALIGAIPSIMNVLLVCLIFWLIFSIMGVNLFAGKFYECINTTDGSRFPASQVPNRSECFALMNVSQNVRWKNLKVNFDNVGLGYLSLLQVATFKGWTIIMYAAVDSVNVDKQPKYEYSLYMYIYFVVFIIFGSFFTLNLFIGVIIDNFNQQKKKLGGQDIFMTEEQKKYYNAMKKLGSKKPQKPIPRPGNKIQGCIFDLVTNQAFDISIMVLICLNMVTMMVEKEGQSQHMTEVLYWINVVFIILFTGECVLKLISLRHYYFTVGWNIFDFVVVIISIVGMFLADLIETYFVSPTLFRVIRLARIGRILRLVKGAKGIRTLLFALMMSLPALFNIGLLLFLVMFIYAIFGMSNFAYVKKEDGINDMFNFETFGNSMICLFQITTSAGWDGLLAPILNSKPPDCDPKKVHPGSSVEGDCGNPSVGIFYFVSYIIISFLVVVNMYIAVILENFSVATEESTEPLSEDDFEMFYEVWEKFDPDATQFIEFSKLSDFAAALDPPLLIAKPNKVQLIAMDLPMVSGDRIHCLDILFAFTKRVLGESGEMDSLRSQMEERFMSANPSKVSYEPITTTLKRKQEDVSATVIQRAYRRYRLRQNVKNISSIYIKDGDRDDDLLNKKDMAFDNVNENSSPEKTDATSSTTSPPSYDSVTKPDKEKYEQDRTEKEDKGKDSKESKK

Structure (SMILES)	IC50
Cc1cc(C(C)NC(=O)c2ccnc(NC(=O)C3CC3)n2)ccc1OCC(F)F (single isomer, unassigned) [Example 863, 2-(cyclopropanecarboxamido)-N-(1-(4-(2,2-difluoroethoxy)-3-methylphenyl)ethyl)pyrimidine-4-carboxamide]	< 1000 nM
Cc1cc(C(=O)NC(C)c2ccc(OCC(F)F)c(C)c2)cc(NC(=O)C(C)C)n1 (single isomer, unassigned) [Example 865, N-(1-(4-(2,2-difluoroethoxy)-3-methyphenyl)ethyl)-2-isobutyramido-6-methylisonicotinamide]	< 1000 nM
Cc1cc(C(=O)NC(C)c2ccc(OCC(F)F)c(C)c2)cc(NC(=O)C2CC2)n1 (single isomer, unassigned) [Example 866, 2-(cyclopropanecarboxamido)-N-(1-(4-(2,2-difluoroethoxy)-3-methylphenyl)ethyl)-6-methylisonicotinamide]	< 1000 nM
Cc1cc(C(=O)NC(C)c2cccc(OCC(F)(F)F)c2)cc(NC(=O)C(C)C)n1 (single isomer, unassigned) [Example 881, 2-isobutyramido-6-methyl-N-(1-(3-(2,2,2-trifluoroethoxy)phenyl)ethyl)isonicotinamide]	< 1000 nM
CCc1cc(C(C)NC(=O)c2ccnc(NC(=O)C3CC3)n2)cnc1OCC(F)F (single isomer, unassigned) [Example 890, 2-(cyclopropanecarboxamido)-N-(1-(6-(2,2-difluoroethoxy)-5-ethylpyridin-3-yl)ethyl)pyrimidine-4-carboxamide]	< 1000 nM
CCc1cc(C(C)NC(=O)c2cc(C)nc(NC(=O)C(C)C)c2)cnc1OCC(F)F (single isomer, unassigned) [Example 893, N-(1-(6-(2,2-difluoroethoxy)-5-ethylpyridin-3-yl)ethyl)-2-isobutyramido-6-methylisonicotinamide]	< 1000 nM
CC(=O)Nc1cc(C(=O)NC(C)c2cnc(OCC(F)(F)C(F)F)c(C)c2)ccn1 (single isomer, unassigned) [Example 903, 2-acetamido-N-(1-(5-methyl-6-(2,2,3,3-tetrafluoropropoxy)pyridin-3-yl)ethyl)isonicotinamide]	< 1000 nM
Cc1cc(C(=O)NC(C)c2cnc(OCC(F)(F)C(F)F)c(C)c2)nc(NC(=O)C2CC2)n1 (single isomer, unassigned) [Example 907, 2-(cyclopropanecarboxamido)-6-methyl-N-(1-(5-methyl-6-(2,2,3,3-tetrafluoropropoxy)pyridin-3-yl)ethyl)pyrimidine-4-carboxamide]	< 1000 nM
CC(NC(=O)c1ccnc(NC(=O)C2CC2)c1)c1ccc(OCC(F)(F)C(F)F)nc1 (single isomer, unassigned) [Example 922, 2-(cyclopropanecarboxamido)-N-(1-(6-(2,2,3,3-tetrafluoropropoxy)pyridin-3-yl)ethyl)isonicotinamide]	< 1000 nM
CC(=O)Nc1cc(C(=O)NC(C)c2ccc(OCC(F)(F)C(F)(F)F)nc2)ccn1 (single isomer, unassigned) [Example 924, 2-acetamido-N-(1-(6-(2,2,3,3,3-pentafluoropropoxy)pyridin-3-yl)ethyl)isonicotinamide]	< 1000 nM
CCCC(=O)Nc1cc(C(=O)NC(C)c2cnc(OCC(F)(F)C(F)F)c(C)c2)ccn1 (single isomer, unassigned) [Example 928, 2-butyramido-N-(1-(5-methyl-6-(2,2,3,3-tetrafluoropropoxy)pyridin-3-yl)ethyl)isonicotinamide]	< 1000 nM
Cc1cc(C(=O)NC(C)c2cnc(OCC(F)F)c(C)c2)cc(NC(=O)C2CC2)n1 (single isomer, unassigned) [Example 938, 2-(cyclopropanecarboxamido)-N-(1-(6-(2,2-difluoroethoxy)-5-methylpyridin-3-yl)ethyl)-6-methylisonicotinamide]	< 1000 nM
Cc1cc(C(=O)NC(C)c2cc(C(F)(F)F)ccc2F)cc(NC(=O)C(C)C)n1 (single isomer, unassigned) [Example 980, N-(1-(2-fluoro-5-(trifluoromethyl)phenyl)ethyl)-2-isobutyramido-6-methylisonicotinamide]	< 1000 nM
CC(=O)Nc1cc(C(=O)NC(C)c2cc(C(F)(F)F)ccc2F)cc(C)n1 (single isomer, unassigned) [Example 981, 2-acetamido-N-(1-(2-fluoro-5-(trifluoromethyl)phenyl)ethyl)-6-methyl-isonicotinamide]	< 1000 nM
CC(=O)Nc1cc(C(=O)NC(C)c2cccc(OCC(F)(F)F)c2)cc(C)n1 (single isomer, unassigned) [Example 1009, 2-acetamido-6-methyl-N-(1-(3-(2,2,2-trifluoroethoxy)phenyl)ethyl)isonicotinamide]	< 1000 nM
CC(C)C(=O)Nc1cc(C(=O)NC(C)c2cccc(SC(F)(F)F)c2)ccn1 (single isomer, unassigned) [Example 1030, 2-isobutyramido-N-(1-(3-((trifluoromethyl)thio)phenyl)ethyl)isonicotinamide]	< 1000 nM
CC(=O)Nc1cc(C(=O)NC(C)c2cccc(SC(F)(F)F)c2)cc(C)n1 (single isomer, unassigned) [Example 1031, 2-acetamido-6-methyl-N-(1-(3-((trifluoromethyl)thio)phenyl)ethyl)isonicotinamide]	< 1000 nM

Structure (SMILES)	IC50
Cc1cc(C(=O)NC(C)c2cccc(SC(F)(F)F)c2)cc(NC(=O)C(C)C)n1 (single isomer, unassigned) [Example 1032, 2-isobutyramido-6-methyl-N-(1-(3-((trifluoromethyl)thio)phenyl)ethyl)isonicotinamide]	< 1000 nM
Cc1cc(C(=O)NC(C)c2cnc(OCC(F)F)c(Cl)c2)cc(NC(=O)C2CC2)n1 (single isomer, unassigned) [Example 1063, N-(1-(5-chloro-6-(2,2-difluoroethoxy)pyridin-3-yl)ethyl)-2-(cyclopropanecarboxamido)-6-methylisonicotinamide]	< 1000 nM
Cc1cc(C(=O)NC(C)c2ccc(OCC(C)(F)F)nc2)cc(NC(=O)C2CC2)n1 (single isomer, unassigned) [Example 1064]	< 1000 nM
Cc1cc(C(=O)NC(C)c2ccc(OCC(F)F)c(C)c2)nc(NC(=O)C2CC2)n1 (single isomer, unassigned) [Example 1075, 2-(cyclopropanecarboxamido)-N-(1-(4-(2,2-difluoroethoxy)-3-methylphenyl)ethyl)-6-methylpyrimidine-4-carboxamide]	< 1000 nM
CC(=O)Nc1cc(C(=O)NC(C)c2cc(C(F)(F)F)ccc2F)ccn1 (single isomer, unassigned) [Example 1096, 2-acetamido-N-(1-(2-fluoro-5-(trifluoromethyl)phenyl)ethyl)isonicotinamide]	< 1000 nM
CC(=O)Nc1cc(C(=O)NC(C)c2ccc(OCC(F)F)c(Cl)c2)cc(C)n1 (single isomer, unassigned) [Example 1100, 2-acetamido-N-(1-(3-chloro-4-(2,2-difluoroethoxy)phenyl)ethyl)-6-methylisonicotinamide]	< 1000 nM
Cc1cc(C(=O)NC(C)c2ccc(OCC(F)F)c(Cl)c2)cc(NC(=O)C(C)C)n1 (single isomer, unassigned) [Example 1101, N-(1-(3-chloro-4-(2,2-difluoroethoxy)phenyl)ethl)-2-isobutyramido-6-methylisonicotinamide]	< 1000 nM
Cc1cc(C(=O)NC(C)c2ccc(OCC(F)F)cc2C)cc(NC(=O)C(C)C)n1 (single isomer, unassigned) [Example 1104, N-(1-(4-(2,2-difluoroethoxy)-2-methylphenyl)ethyl)-2-isobutyramido-6-methylisonicotinamide]	< 1000 nM
CCC(=O)Nc1cc(C(=O)NC(C)c2ccc(OCC(F)F)cc2Cl)ccn1 (single isomer, unassigned) [Example 1116, N-(1-(2-chloro-4-(2,2-difluoroethoxy)phenyl)ethyl)-2-propionamidoisonicotinamide]	< 1000 nM
COc1nc(OCC(F)F)ccc1C(C)NC(=O)c1ccnc(NC(C)=O)c1 (single isomer, unassigned) [Example 1160, 2-acetamido-N-(1-(6-(2,2-difluoroethoxy)-2-methoxypyridin-3-yl)ethyl)isonicotinamide]	< 1000 nM
CCC(=O)Nc1cc(C(=O)NC(C)c2ccc(OCC(F)F)nc2OC)ccn1 (single isomer, unassigned) [Example 1161, N-(1-(6-(2,2-difluoroethoxy)-2-methoxypyridin-3-yl)ethyl)-2-propionamidoisonicotinamide]	< 1000 nM
COc1nc(OCC(F)F)ccc1C(C)NC(=O)c1ccnc(NC(=O)C2CC2)c1 (single isomer, unassigned) [Example 1162, 2-(cyclopropanecarboxamido)-N-(1-(6-(2,2-difluoroethoxy)-2-methoxypyridin-3-yl)ethyl)isonicotinamide]	< 1000 nM
COc1nc(OCC(F)F)ccc1C(C)NC(=O)c1ccnc(NC(=O)C(C)C)c1 (single isomer, unassigned) [Example 1163, N-(1-(6-(2,2-difluoroethoxy)-2-methoxypyridin-3-yl)ethyl)-2-isobutyramidoisonicotinamide]	< 1000 nM
COc1nc(OCC(F)F)ccc1C(C)NC(=O)c1cc(C)nc(NC(=O)C(C)C)c1 (single isomer, unassigned) [Example 1166, N-(1-(6-(2,2-difluoroethoxy)-2-methoxypyridin-3-yl)ethyl)-2-isobutyramido-6-methylisonicotinamide]	< 1000 nM
CCC(=O)Nc1cc(C(=O)NC(C)c2ccc(OCC(F)(F)C(F)(F)F)nc2)ccn1 (single isomer, unassigned) [Example 1169, N-(1-(6-(2,2,3,3,3-pentafluoropropoxy)pyridin-3-yl)ethyl)-2-propionamidoisonicotinamide]	< 1000 nM
Cc1cc(C(C)NC(=O)c2ccnc(NC(=O)C(C)C)c2)cc(Cl)c1OCC(F)F (single isomer, unassigned) [Example 1210, N-(1-(3-chloro-4-(2,2-difluoroethoxy)-5-methylphenyl)ethyl)-2-isobutyramidoisonicotinamide]	< 1000 nM
